Assay results from patent US5116748A, “Process for the production of L-alanine dehydrogenase from 78-3 FERM BP-2517” (Toyo Jozo Kabushiki Kaisha, priority 1988, dated 1992).
Read-outs that look alike come from different tables or passages of the source.

Tested on: L-alanine dehydrogenase from Sporolactobacillus sp. 78-3 (FERM BP-2517)
Assay: Km-Value of L-alanine dehydrogenase (reductive amination, decrease of NADH at 340 nm)
Assay type: biochemical
Settings: purified enzyme
Description: Enzyme activity is measured by the following assay method:
The reaction mixture, 1 ml, in a 1 ml quartz cell is pre-incubated at 37° C. for 5 mins. Dilute enzyme solution, 0.02 ml with 50 mM triethanolamine buffer (pH 8.5) is added thereto and the mixture is stirred to initiate the reaction. Decrease of NADH is measured photometrically at 340 nm during the reaction. Enzyme activity is calculated by the following equation on the linear part of the curve: [formula] wherein T=reaction time (min.); X=dilution ratio.

In the case of `NC(=O)C1=CN([C@@H]2O[C@H](COP(=O)(O)OP(=O)(O)OC[C@H]3O[C@@H](n4cnc5c(N)ncnc54)[C@H](O)[C@@H]3O)[C@@H](O)[C@H]2O)C=CC1` [NADH], the Km (coenzyme NADH, read-out: Km-Value (NADH)) is reported as 0.011 mM.
`N` [NH4^+] was tested, and the Km (substrate NH4+, read-out: Km-Value (NH4+)) was 20 mM.
